# Source: patent US12702671B2, “Calcineurin inhibitors of the setron family for the treatment of hearing loss” (SENSORION, priority 2015, dated 2026)
# Entries after “also recorded” stand apart in the source; their conditions may differ. Counter-ions that a name gives are not always drawn.
# Key:
# calcineurin = assay: Calcineurin phosphatase activity in cerebellar granule neurons after 4 DIV (malachite green colorimetric assay, Test A); type: cell-based, Wistar rat; conditions: for effect on calcineurin phosphatase activity: CGNs in K25 medium, 10, 100 or 1000 nM for 4 DIV, relative to K25 control (100%); for change of calcineurin inhibition with increasing concentration: CGNs, 4 DIV, 10-1000 nM
# Experimental: According to Test A, phosphatase calcineurin activity is assessed in cerebellar granule neurons (CGNs) using a colorimetric assay kit based on quantification of the green complex formed between malachite green, molybdate and free phosphate released. CGNs are detached from plates, for example by scraping, rinsed in ice-cold tris buffer solution (TBS) and counted. About 10 million cells are lysed in 1 ml of the provided lysis buffer and centrifuged at 150,000×g at 4° C. for 45 min, and the supernatant may be stored at −70° C. until analysis. Prior to calcineurin activity assay, free phosphate and nucleotides are removed from cellular extract by gel filtration. To ensure the complete removal of phosphate, malachite green reagent may be added, which will turn the color green in presence of phosphate. A specific calcineurin substrate is added to phosphate-free cellular extracts and after appropriate incubation period, malachite green reagent is applied. The rapid green color formation from the reaction is measured, for example on a spectrophotometer. The developed color is proportional to the calcineurin phosphatase activity of samples. Absorbance values, read at 620 nm, may thus be transformed to percentage calcineurin activity relative to K25 control treatment (100%). Cerebellar granule cells were dissociated from the cerebellae of 7-day-old Wistar rat pups as described (Kramer et al. 2003, Mol Cell Neurosci 23:325-330). Briefly, the cerebellae were removed, rinsed in HBSS-BSA, minced, digested with 0.025% trypsin and incubated at 37° C. for 15 min. To stop the digestion, DMEM containing 10% fetal calf serum was added; then a single cell suspension was obtained through pipetting up and down the sedimented tissue. Following centrifugation, cells were counted using trypan blue exclusion test in a Burker chamber. This method is based on the ability of viable cells to exclude trypan blue due to their intact cell membranes, leaving them unstained while nonviable cells take up the dye. Cells at 3.2×10^5/cm^2 were seeded in DMEM Hepes modification supplemented with 10% fetal calf serum, 100 μg/ml pyruvate, and 100 μg/ml gentamicin on Polystyrene 12-well tissue culture plates (CELLSTAR) coated with poly-L-lysine. After 24 h, 10 μM cytosine arabinofuranoside was added to inhibit the growth of non-neuronal cells. All pharmacological interventions begun at this time in the culture medium containing 25 mM KCl (K25), which caused depolarization of granule cells and consequently activated gene expression machinery. Moreover, the viability of granule neurons was higher in this milieu and therefore provides the possibility to maintain cells for several days. Indeed, 25 mM KCl is required in the medium for CGN cultures to maintain adequate calcineurin activity and cell maturation and depolarization (Kramer et al., 2003, Mol Cell Neurosci 23:325-330; Vallano et al. 2006, Neuropharmacology 50: 651-660). Cultures received simple medium (K25 control) or medium containing a setron compound in HCl salt form (Tocris Bioscience, Bristol, UK) at concentrations of 10 nM, 100 nM or 1000 nM for 4 days in vitro (DIV). Phosphatase calcineurin activity was assessed in CGNs using a colorimetric assay kit based on quantification of the green complex formed between malachite green, molybdate and free phosphate released. CGNs were detached from plates by scraping, rinsed in ice-cold tris buffer solution (TBS) and counted. About 10 million cells are lysed in 1 ml of the provided lysis buffer and centrifuged at 150,000×g at 4° C. for 45 min, and the supernatant was stored at −70° C. until analysis. Prior to calcineurin activity assay, free phosphate and nucleotides were removed from cellular extract by gel filtration. To ensure the complete removal of phosphate, malachite green reagent was added, which will turn the color green in presence of phosphate. […]
# [1] = system: acoustic trauma induced hearing loss; assay: Auditory brainstem response (ABR) thresholds after acoustic trauma; type: in vivo, Wistar rats; conditions: for ABR threshold recovery from 24 h to day 14 compared to placebo / hearing outcomes (ABR thresholds and DPOAE amplitudes) at 14 days after acoustic trauma compared to placebo: i.p. daily for 14 days after acoustic trauma, same doses as E4; for ABR threshold shift from baseline to day 14 compared to placebo: i.p. daily for 14 days from immediately after 121 dB trauma, azasetron HCl 4.22, ondansetron HCl 4, tropisetron HCl 3.5, granisetron HCl 3.8, Tacrolimus 1.5 mg/kg
# Experimental: (§1) All experiments were performed using 7 week old male Wistar rats (CERJ, Le Genest, France) in accordance with the French Ministry of Agriculture regulations and European Community Council Directive no. 86/609/EEC, OJL 358. The rats were fed a standard diet ad libitum and maintained on a 12 h light-dark cycle.
# (§2) Auditory Brainstem Reponses (ABR) and Distortion Product Otoacoustic Emissions (DPOAE) were recording using a RZ6 Auditory Workstation (Tucker-Davis Technologies, Alachua, FL, USA) with animals deeply anesthetized using 90 mg/kg ketamine and 10 mg/kg xylazine and placed on a 35° C. recirculating heating pad inside a sound attenuating cubicle (Med Associates Inc., St. Albans, VT, USA) throughout the experiment.
# For ABR recordings, three stainless steel needle electrodes were placed subdermally over the vertex, the right mastoid and right hind leg of each animal. Tone-pips (5 msec duration presented at a rate of 21/s) at 8, 16 and 24 kHz were delivered to the right ear using a calibrated MF-1 speaker in closed-field configuration (Tucker-Davis Technologies, Alachua, FL, USA) at attenuating intensity until no reproducible response could be recorded. Close to the ABR threshold, the responses to 1000 acoustic stimuli in 5 dB steps were averaged. Responses were low-pass filtered at 3 kHz.
# (§3) Animals were exposed to 121 dB octave band noise (8-16 kHz) for 2 h in groups of 4 rats, placed in individual compartments of a custom built circular cage placed on a 30 cm diameter platform rotating at 3 turns/minute (Aqila Innovation, Valbonne, France). The calibrated octave band noise generated by the RZ6 SigGen software was further amplified by a Crown D-75 amplifier in bridge mode (Crown Audio, Elkhart, IN, USA) and delivered by four Beyma CP16 compression tweeters (Acustica Beyma S. L., Moncada, Valencia, Spain) positioned 39 cm above the rotating platform, each 10 cm from the platform center.
# (§4) Animals were treated by intraperitoneal injection daily for 14 days beginning immediately after acoustic trauma induction and subsequently repeated every 24 hours. The setron compounds granisetron HCl, ondansetron HCl, tropisetron HCl and azasetron HCl (Tocris Bioscience, Bristol, UK) were delivered dissolved in saline solution (1.6 mL/kg) while Tacrolimus (Selleck Chemicals, Houston, TX, USA) was dissolved in solution composed of 10% ethanol-100%/10% Kolliphor EL/1% Tween 80/79% saline (1.0 mL/kg). Placebo treated animals received injections of 1.6 mL/kg saline following the same treatment schedule.
# (§5) Statistical analysis was performed using two-way ANOVA (Audiometry data: frequency and treatment group. Cochleograms: normalized distance from apex and treatment group) followed by Holm-Sidak post-hoc test for multiple comparisons. Results are given as mean±SEM and a p value less than or equal to 0.05 considered significant.
# (§6) Baseline line audiometry (ABR and DPOAE measures) was performed for each animal 3 days before acoustic trauma was induced. Subsequently, audiometry measures were repeated 24 h and 14 days after acoustic trauma.
# (§7) To quantify and compare the difference in treatment effects between groups while taking into account individual baseline and trauma variability, the hearing loss (ABR threshold shift & DPOAE amplitude loss) at D14 relative to baseline, as well as the functional recovery of hearing from 24 h to D14 (ABR threshold shift & DPOAE amplitude loss) were determined for all treatment groups.
# [2] = system: acoustic trauma induced hearing loss; assay: Distortion product otoacoustic emissions (DPOAE) amplitudes after acoustic trauma; type: in vivo, Wistar rats; conditions: for DPOAE amplitude loss from baseline to day 14 compared to placebo / recovery of DPOAE amplitudes from 24 h post trauma to day 14 compared to placebo: i.p. daily for 14 days after acoustic trauma, same doses as E4
# Experimental: as §1, §2
# DPOAEs were recorded and using ER10B+ Low Noise DPOAE microphone (Etymotic Research, Inc., Elk Grove Village, IL, USA) with acoustic stimuli delivered by two calibrated MF-1 speakers in closed-field configuration (Tucker-Davis Technologies, Alachua, FL, USA). DPOAEs were recorded at fixed stimulus levels (L1=L2=70 dB SPL), with an f2/f1 ratio of 1.2. Responses were recorded at 4, 8, 16, 24 and 32 kHz.
# as §3, §4, §5, §6, §7
# outer hair cells = assay: Outer hair cell loss (cytocochleograms) in cochleae fixed at D14 after acoustic trauma; type: in vivo, Wistar rats; conditions: cochleae fixed after audiometry on day 14
# Experimental: as §3, §4
# After audiometry on day 14, animals were deeply anaesthetized with an intraperitoneal injection of pentobarbital (100 mg/kg). The cochleae were removed, fixed with 4% paraformaldehyde, pH 7.4, decalcified with 10% EDTA, pH 7.4 and then stained with myosin VIIa 1/1000. […] The mean loss of OHCs per group was subsequently calculated as a function of normalized distance from the apex in bins of 2.5% of the total length, using the total length of each histological specimen. Cell counts could reliably be obtained for up to 90% of the total distance from the apex (corresponding to the tonotopic region up to from 0 kHz to ~50 kHz in rat, Viberg & Canlon 2004), while the last 10% was too variable due to damage incurred during dissection.
# as §5
# To further support the conclusions from the functional audiometry data, the loss of outer hair cells in four treatment group was determined by constructing cytocochleograms from histological preparations of cochleae fixed after audiometry on day 14.
# [3] = Animal deaths during 14-day repeated treatment in the acoustic trauma study; type: in vivo, Wistar rats; conditions: Tacrolimus 1.5 mg/kg i.p. daily for 14 days
# Experimental: as §1, §4, §6
# FIGS. 2 & 3 illustrate the audiometry measures (ABR thresholds and DPOAE amplitudes) determined for all treatment groups at baseline, 24 h and 14 days after acoustic trauma. For ABR thresholds exceeding 90 dB, a maximal value of 95 dB was attributed. […]
# [4] = system: noise-induced hearing loss; conditions: Uemaetomari et al. 2005; Bas et al. 2009; cited from earlier work
# [5] = day 14, i.p. daily for 14 days after acoustic trauma
effect on calcineurin phosphatase activity (calcineurin),Compound,ABR threshold recovery from 24 h to day 14 compared to placebo [1],hearing outcomes (ABR thresholds and DPOAE amplitudes) at 14 days after acoustic trauma compared to placebo [1],ABR threshold shift from baseline to day 14 compared to placebo [1],DPOAE amplitude loss from baseline to day 14 compared to placebo [2],recovery of DPOAE amplitudes from 24 h post trauma to day 14 compared to placebo [2],DPOAE amplitude loss from baseline to day 14 compared to placebo ([2]; listed as granisetron),mean loss of outer hair cells compared to placebo (outer hair cells),mean loss of outer hair cells compared to placebo (outer hair cells; listed as granisetron),change of calcineurin inhibition with increasing concentration (calcineurin),"reduction of ABR threshold shifts compared to placebo treatment [1, 5]","reduction of DPOAE amplitudes loss compared to placebo treatment [2, 5]",animals that died between treatment initiation and end of the study [3],effect on hearing loss in pre-clinical models of noise-induced hearing loss [4],DPOAE amplitude loss from baseline to day 14 compared to placebo ([2]; listed as tropisetron)
significantly inhibited,Cc1nccn1CC1CCc2c(c3ccccc3n2C)C1=O (stereo not drawn) [ondansetron HCl],–,improvement at some frequencies,lower ABR threshold shift,trend towards reduced loss of DPOAE amplitude,improved recovery,–,–,–,decreased with increasing concentration,10-30%,10-30%,–,–,–
significantly inhibited,Cn1cc(C(=O)[C@@H]2CCc3nc[nH]c3C2)c2ccccc21 [ramosetron HCl],–,–,–,–,–,–,–,–,increased to different degree with increasing concentrations,–,–,–,–,–
–,C=CC[C@@H]1/C=C(\C)C[C@H](C)C[C@H](OC)[C@H]2O[C@@](O)(C(=O)C(=O)N3CCCC[C@H]3C(=O)O[C@H](/C(C)=C/[C@@H]3CC[C@@H](O)[C@H](OC)C3)[C@H](C)[C@@H](O)CC1=O)[C@H](C)C[C@@H]2OC [tacrolimus],–,improvement at some frequencies,no major effect,trend towards reduced loss of DPOAE amplitude; also recorded: trends towards improving DPOAE amplitude loss at some frequencies,improved recovery,–,Neither the granisetron HCl nor the tacrolimus treated groups were significantly different from placebo,–,–,–,–,5 animals out of 11,reduce hearing loss,–
significantly inhibited,CN1[C@@H]2CC[C@H]1C[C@@H](OC(=O)c1c[nH]c3ccccc13)C2 [tropisetron HCl],decreased threshold recovery,worse ABR thresholds and DPOAE amplitudes,strong trends towards higher ABR threshold shifts,trend towards increased DPOAE amplitude loss,reduced recovery,–,trend towards worse,–,increased to different degree with increasing concentrations,–,–,–,–,trend towards worse DPOAE amplitudes
–,cyclosporine A,–,–,–,–,–,–,–,–,–,–,–,–,reduce hearing loss,–

Compound,effect on calcineurin phosphatase activity (calcineurin),ABR threshold recovery from 24 h to day 14 compared to placebo [1],hearing outcomes (ABR thresholds and DPOAE amplitudes) at 14 days after acoustic trauma compared to placebo [1],ABR threshold shift from baseline to day 14 compared to placebo [1],DPOAE amplitude loss from baseline to day 14 compared to placebo [2],recovery of DPOAE amplitudes from 24 h post trauma to day 14 compared to placebo [2],DPOAE amplitude loss from baseline to day 14 compared to placebo ([2]; listed as granisetron),mean loss of outer hair cells compared to placebo (outer hair cells),mean loss of outer hair cells compared to placebo (outer hair cells; listed as granisetron),change of calcineurin inhibition with increasing concentration (calcineurin),"reduction of ABR threshold shifts compared to placebo treatment [1, 5]","reduction of DPOAE amplitudes loss compared to placebo treatment [2, 5]",animals that died between treatment initiation and end of the study [3],effect on hearing loss in pre-clinical models of noise-induced hearing loss [4],DPOAE amplitude loss from baseline to day 14 compared to placebo ([2]; listed as tropisetron)
CN1C2CCCC1CC(NC(=O)c1nn(C)c3ccccc13)C2 (stereo not drawn) [granisetron HCl],no effect,decreased threshold recovery,worse ABR thresholds and DPOAE amplitudes,strong trends towards higher ABR threshold shifts,trend towards increased DPOAE amplitude loss,reduced recovery,trend towards worse DPOAE amplitudes,Neither the granisetron HCl nor the tacrolimus treated groups were significantly different from placebo,trend towards worse,–,–,–,–,–,–
